For the data set the following is noted: DTA; for Triple point temperature: Crystal 2; for Normal melting temperature: Crystal.

Structures are written as SMILES. ± gives the expanded uncertainty stated by the source.

For the molecule `O=S(=O)([N-]S(=O)(=O)C(F)(F)C(F)(F)F)C(F)(F)C(F)(F)F.[Cs+]` [cesium bis((perfluoroethyl)sulfonyl)amide], the Triple point temperature came to 369 ± 2 K and the Normal melting temperature stood at 253 ± 2 °C.
As for `O=S(=O)([N-]S(=O)(=O)C(F)(F)C(F)(F)F)C(F)(F)C(F)(F)F.[Li+]` [lithium bis(pentafluoroethylsulfonyl)amide], the Triple point temperature was 485 ± 2 K and the Normal melting temperature stood at 328 ± 2 °C.
Consider `O=S(=O)([N-]S(=O)(=O)C(F)(F)C(F)(F)F)C(F)(F)C(F)(F)F.[K+]` [potassium bis(pentafluoroethylsulfonyl) amide], for which the Triple point temperature is 427 ± 2 K and the Normal melting temperature was 273 ± 2 °C.
With `O=S(=O)([N-]S(=O)(=O)C(F)(F)C(F)(F)F)C(F)(F)C(F)(F)F.[Rb+]` [rubidium bis((perfluoroethyl)sulfonyl)amide], the Triple point temperature stood at 419 ± 2 K and the Normal melting temperature was determined as 266 ± 2 °C.
Turning to `O=S(=O)([N-]S(=O)(=O)C(F)(F)C(F)(F)F)C(F)(F)C(F)(F)F.[Na+]` [sodium bis(pentafluoroethylsulfonyl)amide], the Triple point temperature was found to be 454 ± 2 K and the Normal melting temperature came out at 266 ± 2 °C.

Source of the values: the NIST ThermoML archive (doi:10.1021/je900902z).
